Data on 26 compounds can be found in patent publication US12479849B2, “EGFR inhibitors for the treatment of cancer” (Hoffmann-La Roche Inc., priority 2019, dated 2025).

For the assay, the target named is T1, EGFR TMLRCS (Homo sapiens, UniProt P00533, C797S/L858R/T790M).
T1 construct: host or cells: BaF3-TMLRCS (Ba/F3 cells, kept under puromycin selection)
The assay can be described thus: HTRF Phospho EGFR TMLRCS Assay (Cellular). It counts as cell-based. To be noted: BaF3-TMLRCS cell line, 4 hours incubation, Phospho-EGFR HTRF readout. The gist of the method:
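BaF3 cells expressing EGFR L858R/T790M/C797S, 20000/well, treated with compound in dose response for 4 h at 37 °C, 5% CO2. After lysis, phospho-EGFR detected by HTRF with cryptate and d2 antibodies over 4 h at room temperature. Signal taken as 665/616 nm ratio ×10000, normalized.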

T1 sequence (P00533 25-1210 T790M/C797S/L858R): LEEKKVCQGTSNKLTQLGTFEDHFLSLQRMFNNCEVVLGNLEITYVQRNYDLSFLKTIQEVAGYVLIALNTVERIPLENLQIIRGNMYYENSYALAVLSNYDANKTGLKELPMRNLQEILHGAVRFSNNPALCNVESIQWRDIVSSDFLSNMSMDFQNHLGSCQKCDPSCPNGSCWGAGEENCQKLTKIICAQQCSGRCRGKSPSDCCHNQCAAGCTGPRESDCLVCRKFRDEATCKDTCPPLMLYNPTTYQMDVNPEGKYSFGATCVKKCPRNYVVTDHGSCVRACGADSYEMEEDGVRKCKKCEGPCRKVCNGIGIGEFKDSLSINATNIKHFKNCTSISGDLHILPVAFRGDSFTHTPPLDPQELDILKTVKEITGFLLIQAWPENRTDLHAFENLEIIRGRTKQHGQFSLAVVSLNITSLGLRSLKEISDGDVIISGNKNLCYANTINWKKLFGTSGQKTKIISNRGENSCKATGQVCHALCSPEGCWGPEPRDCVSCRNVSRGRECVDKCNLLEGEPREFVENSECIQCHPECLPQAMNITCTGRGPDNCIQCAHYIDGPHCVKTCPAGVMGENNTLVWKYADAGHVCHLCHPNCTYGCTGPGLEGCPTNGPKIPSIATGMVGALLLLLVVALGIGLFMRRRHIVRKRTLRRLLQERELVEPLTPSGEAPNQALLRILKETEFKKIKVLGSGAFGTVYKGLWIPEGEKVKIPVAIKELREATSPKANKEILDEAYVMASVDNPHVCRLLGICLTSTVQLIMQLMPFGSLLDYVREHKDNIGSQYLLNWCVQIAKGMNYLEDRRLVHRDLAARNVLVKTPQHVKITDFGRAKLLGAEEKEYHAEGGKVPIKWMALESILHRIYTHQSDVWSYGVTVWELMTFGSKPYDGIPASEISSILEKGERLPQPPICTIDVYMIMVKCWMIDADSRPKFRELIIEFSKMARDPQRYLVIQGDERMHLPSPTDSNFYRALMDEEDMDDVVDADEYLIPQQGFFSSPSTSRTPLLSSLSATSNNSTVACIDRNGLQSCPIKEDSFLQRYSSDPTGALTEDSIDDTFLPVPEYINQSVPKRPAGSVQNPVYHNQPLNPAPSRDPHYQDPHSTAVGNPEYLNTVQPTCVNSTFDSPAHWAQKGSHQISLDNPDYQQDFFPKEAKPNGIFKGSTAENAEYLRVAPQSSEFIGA

Compound `CCN1CC[C@@H](c2ccc(-c3cc(C)c4cn(C(C(=O)Nc5nccs5)c5ncn6c5C[C@@H](F)C6)nc4c3Cl)cc2)[C@H](F)C1` (single isomer, unassigned) [Example 129] registered an IC50 of 10 nM. For `CCN1CCN(c2ccc(-c3cc(Cl)c4cn(C(C(=O)Nc5nccs5)c5ncn6c5C[C@@H](F)C6)nc4c3Cl)cc2)CC1` (stereo partly drawn) [Example 26, 2-(4,7-Dichloro-6-(4-(4-ethylpiperazin-1-yl)phenyl)-2H-indazol-2-yl)-2-((R)-6-fluoro-6,7-dihydro-5H-pyrrolo[1,2-c]imidazol-1-yl)-N-(thiazol-2-yl)acetamide], the midpoint of inhibition, the IC50, lay at 4 nM.

`O=C(Nc1nccs1)C(c1ncn2c1C[C@@H](F)C2)n1cc2c(Cl)cc(-c3cnc(N4CCOCC4)nc3)c(Cl)c2n1` (stereo partly drawn) [Example 27, 2-(4,7-Dichloro-6-(2-morpholinopyrimidin-5-yl)-2H-indazol-2-yl)-2-((R)-6-fluoro-6,7-dihydro-5H-pyrrolo[1,2-c]imidazol-1-yl)-N-(thiazol-2-yl)acetamide] displayed an IC50 of 5 nM. In the case of `O=C(Nc1nccs1)C(c1ncn2c1C[C@@H](F)C2)n1cc2c(Cl)cc(-c3ccc(C4CCN(C5CC5)CC4)cc3)c(Cl)c2n1` (stereo partly drawn) [Example 28, 2-(4,7-Dichloro-6-(4-(1-cyclopropylpiperidin-4-yl)phenyl)-2H-indazol-2-yl)-2-((R)-6-fluoro-6,7-dihydro-5H-pyrrolo[1,2-c]imidazol-1-yl)-N-(thiazol-2-yl)acetamide] it was 17 nM; in that of `O=C(Nc1nccs1)C(c1ncn2c1C[C@@H](F)C2)n1cc2c(Cl)cc(-c3ccc(C4CCN(CCF)CC4)cc3)c(Cl)c2n1` (stereo partly drawn) [Example 33, 2-(4,7-Dichloro-6-(4-(1-(2-fluoroethyl)piperidin-4-yl)phenyl)-2H-indazol-2-yl)-2-((R)-6-fluoro-6,7-dihydro-5H-pyrrolo[1,2-c]imidazol-1-yl)-N-(thiazol-2-yl)acetamide], 7 nM.

Turning to `CN(C)CCc1ccc(-c2cc(Cl)c3cn(C(C(=O)Nc4nccs4)c4ncn5c4C[C@@H](F)C5)nc3c2Cl)cc1` (stereo partly drawn) [Example 35, 2-(4,7-Dichloro-6-(4-(2-(dimethylamino)ethyl)phenyl)-2H-indazol-2-yl)-2-((R)-6-fluoro-6,7-dihydro-5H-pyrrolo[1,2-c]imidazol-1-yl)-N-(thiazol-2-yl)acetamide], inhibition was half-maximal at 6 nM (IC50).

Regarding `CCc1cc(-c2cc(Cl)c3cn(C(C(=O)Nc4nccs4)c4ncn5c4C[C@@H](F)C5)nc3c2Cl)ccc1OCCN(C)C` (stereo partly drawn) [Example 40, 2-(4,7-Dichloro-6-(4-(2-(dimethylamino)ethoxy)-3-ethylphenyl)-2H-indazol-2-yl)-2-((R)-6-fluoro-6,7-dihydro-5H-pyrrolo[1,2-c]imidazol-1-yl)-N-(thiazol-2-yl)acetamide], inhibition was half-maximal at 8 nM (IC50). In the case of `O=C(Nc1nccs1)C(c1ncn2c1C[C@@H](F)C2)n1cc2c(Cl)cc(-c3ccc(OCCN4CCCC4)cc3)c(Cl)c2n1` (stereo partly drawn) [Example 42, 2-(4,7-Dichloro-6-(4-(2-(pyrrolidin-1-yl)ethoxy)phenyl)-2H-indazol-2-yl)-2-((R)-6-fluoro-6,7-dihydro-5H-pyrrolo[1,2-c]imidazol-1-yl)-N-(thiazol-2-yl)acetamide], the IC50 is 12 nM. In the case of `CCN1C[C@H]2CC(c3ccc(-c4cc(Cl)c5cn(C(C(=O)Nc6nccs6)c6ncn7c6C[C@@H](F)C7)nc5c4Cl)cc3)C[C@H]2C1` (stereo partly drawn) [Example 43, 2-(4,7-Dichloro-6-(4-((3aR,6aS)-2-ethyloctahydrocyclopenta[c]pyrrol-5-yl)phenyl)-2H-indazol-2-yl)-2-((R)-6-fluoro-6,7-dihydro-5H-pyrrolo[1,2-c]imidazol-1-yl)-N-(thiazolyl)acetamide] it was 11 nM. In the case of `CC(F)CN1CCC(c2ccc(-c3cc(Cl)c4cn(C(C(=O)Nc5nccs5)c5ncn6c5C[C@@H](F)C6)nc4c3Cl)cc2)CC1` (stereo partly drawn) [Example 44, 2-(4,7-Dichloro-6-(4-(1-(2-fluoropropyl)piperidin-4-yl)phenyl)-2H-indazol-2-yl)-2-((R)-6-fluoro-6,7-dihydro-5H-pyrrolo[1,2-c]imidazol-1-yl)-N-(thiazol-2-yl)acetamide] it was 13 nM; in that of `COCCN1CCC(c2ccc(-c3cc(Cl)c4cn(C(C(=O)Nc5nccs5)c5ncn6c5C[C@@H](F)C6)nc4c3Cl)cc2)CC1` (stereo partly drawn) [Example 45, 2-(4,7-Dichloro-6-(4-(1-(2-methoxyethyl)piperidin-4-yl)phenyl)-2H-indazol-2-yl)-2-((R)-6-fluoro-6,7-dihydro-5H-pyrrolo[1,2-c]imidazol-1-yl)-N-(thiazol-2-yl)acetamide], 4 nM. Compound `O=C(Nc1nccs1)C(c1ncn2c1C[C@@H](F)C2)n1cc2c(Cl)cc(-c3ccc(CN4CCC(F)(CO)CC4)cc3)c(Cl)c2n1` (stereo partly drawn) [Example 65, 2-(4,7-Dichloro-6-(4-((4-fluoro-4-(hydroxymethyl)piperidin-1-yl)methyl)phenyl)-2H-indazol-2-yl)-2-((R)-6-fluoro-6,7-dihydro-5H-pyrrolo[1,2-c]imidazol-1-yl)-N-(thiazol-2-yl)acetamide] showed an IC50 of 4 nM. In turn, `O=C(Nc1nccs1)C(c1ncn2c1C[C@@H](F)C2)n1cc2c(Cl)cc(-c3ccc(N4CC5(CCNCC5)C4)cc3)c(Cl)c2n1` (stereo partly drawn) [Example 69, 2-(6-(4-(2,7-Diazaspiro[3.5]nonan-2-yl)phenyl)-4,7-dichloro-2H-indazol-2-yl)-2-((R)-6-fluoro-6,7-dihydro-5H-pyrrolo[1,2-c]imidazol-1-yl)-N-(thiazol-2-yl)acetamide] showed an IC50 of 4 nM. Under `CCN1CCCC2(C1)CN(c1ccc(-c3cc(Cl)c4cn(C(C(=O)Nc5nccs5)c5ncn6c5C[C@@H](F)C6)nc4c3Cl)cc1)C2` (stereo partly drawn) [Example 73, 2-(4,7-Dichloro-6-(4-(6-ethyl-2,6-diazaspiro[3.5]nonan-2-yl)phenyl)-2H-indazol-2-yl)-2-((R)-6-fluoro-6,7-dihydro-5H-pyrrolo[1,2-c]imidazol-1-yl)-N-(thiazol-2-yl)acetamide] stands 10 nM; under `O=C(Nc1nccs1)C(c1ncn2c1C[C@@H](F)C2)n1cc2c(Cl)cc(-c3ccc(CN4CCC(CCO)CC4)cc3)c(Cl)c2n1` (stereo partly drawn) [Example 78, 2-(4,7-Dichloro-6-(4-((4-(2-hydroxyethyl)piperidin-1-yl)methyl)phenyl)-2H-indazol-2-yl)-2-((R)-6-fluoro-6,7-dihydro-5H-pyrrolo[1,2-c]imidazol-1-yl)-N-(thiazol-2-yl)acetamide], 3 nM. Compound `CN(CCN1CCC(CO)CC1)c1ccc(-c2cc(Cl)c3cn(C(C(=O)Nc4nccs4)c4ncn5c4C[C@@H](F)C5)nc3c2Cl)cc1` (some centres unmarked) [Example 79] gave an IC50 of 7 nM.

The compound `CN(CCN1CCC(O)CC1)c1ccc(-c2cc(Cl)c3cn(C(C(=O)Nc4nccs4)c4ncn5c4C[C@@H](F)C5)nc3c2Cl)cc1` (some centres unmarked) [Example 80] yielded an IC50 of 8 nM.

`CCN1C[C@@H]2CN(c3ccc(-c4cc(Cl)c5cn(C(C(=O)Nc6nccs6)c6ncn7c6C[C@@H](F)C7)nc5c4Cl)cc3)C[C@@H]2C1` (stereo partly drawn) [Example 81, 2-(4,7-Dichloro-6-(4-((3aR,6aS)-5-ethylhexahydropyrrolo[3,4-c]pyrrol-2(1H)-yl)phenyl)-2H-indazol-2-yl)-2-((R)-6-fluoro-6,7-dihydro-5H-pyrrolo[1,2-c]imidazol-1-yl)-N-(thiazol-2-yl)acetamide]: the IC50 came out at 9 nM. This IC50 and that of the compound before are within 1.5-fold of each other. In turn, `CCN1CC2(CCCN(c3ccc(-c4cc(Cl)c5cn(C(C(=O)Nc6nccs6)c6ncn7c6C[C@@H](F)C7)nc5c4Cl)cc3)C2)C1` (some centres unmarked) [Example 82] registered an IC50 of 11 nM. In the case of `CCN1CC(c2ccc(-c3cc(Cl)c4cn(C(C(=O)Nc5nccs5)c5ncn6c5C[C@@H](F)C6)nc4c3Cl)cc2)C1` (stereo partly drawn) [Example 83, 2-(4,7-Dichloro-6-(4-(1-ethylazetidin-3-yl)phenyl)-2H-indazol-2-yl)-2-((R)-6-fluoro-6,7-dihydro-5H-pyrrolo[1,2-c]imidazol-1-yl)-N-(thiazol-2-yl)acetamide], 10 nM corresponded to half-maximal inhibition (IC50). With `O=C(Nc1nccs1)C(c1ncn2c1C[C@@H](F)C2)n1cc2c(Cl)cc(-c3ccc(C4CN(CCO)C4)cc3)c(Cl)c2n1` (stereo partly drawn) [Example 84, 2-(4,7-Dichloro-6-(4-(1-(2-hydroxyethyl)azetidin-3-yl)phenyl)-2H-indazol-2-yl)-2-((R)-6-fluoro-6,7-dihydro-5H-pyrrolo[1,2-c]imidazol-1-yl)-N-(thiazol-2-yl)acetamide], the IC50 is 12 nM.

`CN1CCC(Oc2ccc(-c3cc(Cl)c4cn(C(C(=O)Nc5nccs5)c5ncn6c5C[C@@H](F)C6)nc4c3Cl)cc2)CC1` (stereo partly drawn) [Example 85, 2-(4,7-Dichloro-6-(4-((l-methylpiperidin-4-yl)oxy)phenyl)-2H-indazol-2-yl)-2-((R)-6-fluoro-6,7-dihydro-5H-pyrrolo[1,2-c]imidazol-1-yl)-N-(thiazol-2-yl)acetamide]: the half-inhibitory concentration (IC50) amounted to 4 nM. Compound `O=C(Nc1nccs1)C(c1ncn2c1C[C@@H](F)C2)n1cc2c(Cl)cc(-c3ccc(OCCN4CC5(CC(O)C5)C4)cc3)c(Cl)c2n1` (stereo partly drawn) [Example 88, 2-(4,7-Dichloro-6-(4-(2-(6-hydroxy-2-azaspiro[3.3]heptan-2-yl)ethoxy)phenyl)-2H-indazol-2-yl)-2-((R)-6-fluoro-6,7-dihydro-5H-pyrrolo[1,2-c]imidazol-1-yl)-N-(thiazol-2-yl)acetamide] had an IC50 of 7 nM. In the case of `CN(CCN1CC(CO)C1)c1ccc(-c2cc(Cl)c3cn(C(C(=O)Nc4nccs4)c4ncn5c4C[C@@H](F)C5)nc3c2Cl)cc1` (some centres unmarked) [Example 89] it was 10 nM. With `CN(CCN1CC(O)C1)c1ccc(-c2cc(Cl)c3cn(C(C(=O)Nc4nccs4)c4ncn5c4C[C@@H](F)C5)nc3c2Cl)cc1` (some centres unmarked) [Example 90], the midpoint of inhibition, the IC50, lay at 12 nM.

In turn, `O=C(Nc1nccs1)C(c1ncn2c1C[C@@H](F)C2)n1cc2c(Cl)cc(-c3ccc(N4CCN5C[C@H](O)C[C@H]5C4)cc3)c(Cl)c2n1` (stereo partly drawn) [Example 93, 2-(4,7-Dichloro-6-(4-((7R,8aS)-7-hydroxyhexahydropyrrolo[1,2-a]pyrazin-2(1H)-yl)phenyl)-2H-indazol-2-yl)-2-((R)-6-fluoro-6,7-dihydro-5H-pyrrolo[1,2-c]imidazol-1-yl)-N-(thiazol-2-yl)acetamide] yielded an IC50 of 6 nM.
